The record followed here is PubChem BioAssay AID1963984 (Molecular Pharmacology Branch, DTP, NCI, 2024).

The structures appear in SMILES notation.
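Further: spheroids exposed to agents for seven days before readout; percent viability relative to DMSO vehicle control taken as 100%.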

The first assay relates to 233499-124-R-J3-PDC spheroids with HUVEC/MSC, viability. The assay can be described thus: Anticancer human tumor 233499-124-R-J3-PDC patient-derived colon adenocarcinoma cell line growth inhibition [PI3K]. Conditions: second compound 0.316 µM; first compound 0.1 µM; active compounds read low. A digest of the protocol: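 Spheroid viability read-out. Co-cultures contained the tumor line plus HUVEC and human MSCs. Each agent was paired with a PI3K inhibitor (inavolisib, alpelisib, duvelisib, copanlisib) across half-log dilutions starting at clinical Cmax, or at 10 microM when Cmax was unknown.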
What is called viability, T/C is the result in the treated group divided by that in the control group, in per cent. Turning to `CC(Cn1ccc(-c2ccc(C#N)c(Cl)c2)n1)NC(=O)c1cc(C(C)O)[nH]n1` (configuration not stated) + COc1c(OCCCN2CCOCC2)ccc2c3n(c(=NC(=O)c4cnc(N)nc4)nc12)CCN3, the viability, T/C is 35.2%.
Turning to `Cn1nccc1Nc1nccc(-c2ccn(C(CO)c3ccc(Cl)c(F)c3)c(=O)c2)n1` (configuration not stated) + COc1c(OCCCN2CCOCC2)ccc2c3n(c(=NC(=O)c4cnc(N)nc4)nc12)CCN3, the viability, T/C was 37.7%.

Still in this assay, the particulars now being: second compound 0.316 µM; first compound 0.316 µM; active compounds read low.
On to `C=CC(=O)N1CCN(c2nc(=O)n(-c3c(C)ccnc3C(C)C)c3nc(-c4c(O)cccc4F)c(F)cc23)C(C)C1` (configuration not stated) + COc1c(OCCCN2CCOCC2)ccc2c3n(c(=NC(=O)c4cnc(N)nc4)nc12)CCN3, for which the viability, T/C is 33.1%.
In the case of `CC(Cn1ccc(-c2ccc(C#N)c(Cl)c2)n1)NC(=O)c1cc(C(C)O)[nH]n1` (configuration not stated) + COc1c(OCCCN2CCOCC2)ccc2c3n(c(=NC(=O)c4cnc(N)nc4)nc12)CCN3, the viability, T/C was 32.5%.
In the case of `Cn1nccc1Nc1nccc(-c2ccn(C(CO)c3ccc(Cl)c(F)c3)c(=O)c2)n1` (configuration not stated) + COc1c(OCCCN2CCOCC2)ccc2c3n(c(=NC(=O)c4cnc(N)nc4)nc12)CCN3, the viability, T/C was 27.1%.

The assay is the same for the next values; noted with them: second compound 0.316 µM; first compound 1 µM; active compounds read low.
Turning to `C=CC(=O)N1CCN(c2nc(=O)n(-c3c(C)ccnc3C(C)C)c3nc(-c4c(O)cccc4F)c(F)cc23)C(C)C1` (configuration not stated) + COc1c(OCCCN2CCOCC2)ccc2c3n(c(=NC(=O)c4cnc(N)nc4)nc12)CCN3, the viability, T/C is 36.4%.
For `CC(Cn1ccc(-c2ccc(C#N)c(Cl)c2)n1)NC(=O)c1cc(C(C)O)[nH]n1` (configuration not stated) + COc1c(OCCCN2CCOCC2)ccc2c3n(c(=NC(=O)c4cnc(N)nc4)nc12)CCN3, the viability, T/C is 28.4%.
With `Cn1nccc1Nc1nccc(-c2ccn(C(CO)c3ccc(Cl)c(F)c3)c(=O)c2)n1` (configuration not stated) + COc1c(OCCCN2CCOCC2)ccc2c3n(c(=NC(=O)c4cnc(N)nc4)nc12)CCN3, the viability, T/C is 14.2%.

Staying with this assay, now noted: second compound 0.316 µM; first compound 3.16 µM; active compounds read low.
Take `C=CC(=O)N1CCN(c2nc(=O)n(-c3c(C)ccnc3C(C)C)c3nc(-c4c(O)cccc4F)c(F)cc23)C(C)C1` (configuration not stated) + COc1c(OCCCN2CCOCC2)ccc2c3n(c(=NC(=O)c4cnc(N)nc4)nc12)CCN3: the viability, T/C was 43.7%.
On to `CC(Cn1ccc(-c2ccc(C#N)c(Cl)c2)n1)NC(=O)c1cc(C(C)O)[nH]n1` (configuration not stated) + COc1c(OCCCN2CCOCC2)ccc2c3n(c(=NC(=O)c4cnc(N)nc4)nc12)CCN3, for which the viability, T/C is 23.6%.
On the same count and under the same terms, the same measure for `Cn1nccc1Nc1nccc(-c2ccn(C(CO)c3ccc(Cl)c(F)c3)c(=O)c2)n1` (configuration not stated) + COc1c(OCCCN2CCOCC2)ccc2c3n(c(=NC(=O)c4cnc(N)nc4)nc12)CCN3: 12%.

Still in this assay, the particulars now being: second compound 0.316 µM; first compound 10 µM; active compounds read low.
For `C=CC(=O)N1CCN(c2nc(=O)n(-c3c(C)ccnc3C(C)C)c3nc(-c4c(O)cccc4F)c(F)cc23)C(C)C1` (configuration not stated) + COc1c(OCCCN2CCOCC2)ccc2c3n(c(=NC(=O)c4cnc(N)nc4)nc12)CCN3, the viability, T/C was 36%.
Turning to `CC(Cn1ccc(-c2ccc(C#N)c(Cl)c2)n1)NC(=O)c1cc(C(C)O)[nH]n1` (configuration not stated) + COc1c(OCCCN2CCOCC2)ccc2c3n(c(=NC(=O)c4cnc(N)nc4)nc12)CCN3, the viability, T/C is 27%.
As to `Cn1nccc1Nc1nccc(-c2ccn(C(CO)c3ccc(Cl)c(F)c3)c(=O)c2)n1` (configuration not stated) + COc1c(OCCCN2CCOCC2)ccc2c3n(c(=NC(=O)c4cnc(N)nc4)nc12)CCN3, the viability, T/C was 9.88%.

The same assay, now with this note: second compound 1 µM; first compound 0.0316 µM; active compounds read low.
In the case of `C=CC(=O)N1CCN(c2nc(=O)n(-c3c(C)ccnc3C(C)C)c3nc(-c4c(O)cccc4F)c(F)cc23)C(C)C1` (configuration not stated) + COc1c(OCCCN2CCOCC2)ccc2c3n(c(=NC(=O)c4cnc(N)nc4)nc12)CCN3, the viability, T/C is 10%.
`CC(Cn1ccc(-c2ccc(C#N)c(Cl)c2)n1)NC(=O)c1cc(C(C)O)[nH]n1` (configuration not stated) + COc1c(OCCCN2CCOCC2)ccc2c3n(c(=NC(=O)c4cnc(N)nc4)nc12)CCN3: the viability, T/C is 14.8%.
Still for that read-out and setting: the same measure for `Cn1nccc1Nc1nccc(-c2ccn(C(CO)c3ccc(Cl)c(F)c3)c(=O)c2)n1` (configuration not stated) + COc1c(OCCCN2CCOCC2)ccc2c3n(c(=NC(=O)c4cnc(N)nc4)nc12)CCN3: 5.63%.

Still in this assay, the particulars now being: second compound 1 µM; first compound 0.1 µM; active compounds read low.
Regarding `C=CC(=O)N1CCN(c2nc(=O)n(-c3c(C)ccnc3C(C)C)c3nc(-c4c(O)cccc4F)c(F)cc23)C(C)C1` (configuration not stated) + COc1c(OCCCN2CCOCC2)ccc2c3n(c(=NC(=O)c4cnc(N)nc4)nc12)CCN3, the viability, T/C was 7.27%.
On to `CC(Cn1ccc(-c2ccc(C#N)c(Cl)c2)n1)NC(=O)c1cc(C(C)O)[nH]n1` (configuration not stated) + COc1c(OCCCN2CCOCC2)ccc2c3n(c(=NC(=O)c4cnc(N)nc4)nc12)CCN3, for which the viability, T/C is 12.6%.
Turning to `Cn1nccc1Nc1nccc(-c2ccn(C(CO)c3ccc(Cl)c(F)c3)c(=O)c2)n1` (configuration not stated) + COc1c(OCCCN2CCOCC2)ccc2c3n(c(=NC(=O)c4cnc(N)nc4)nc12)CCN3, the viability, T/C is 5.4%.

The same assay, now with this note: second compound 1 µM; first compound 0.316 µM; active compounds read low.
Consider `C=CC(=O)N1CCN(c2nc(=O)n(-c3c(C)ccnc3C(C)C)c3nc(-c4c(O)cccc4F)c(F)cc23)C(C)C1` (configuration not stated) + COc1c(OCCCN2CCOCC2)ccc2c3n(c(=NC(=O)c4cnc(N)nc4)nc12)CCN3, for which the viability, T/C was 12.6%.
The same measure, in the same setting: the same measure for `CC(Cn1ccc(-c2ccc(C#N)c(Cl)c2)n1)NC(=O)c1cc(C(C)O)[nH]n1` (configuration not stated) + COc1c(OCCCN2CCOCC2)ccc2c3n(c(=NC(=O)c4cnc(N)nc4)nc12)CCN3: 7.23%.
As for `Cn1nccc1Nc1nccc(-c2ccn(C(CO)c3ccc(Cl)c(F)c3)c(=O)c2)n1` (configuration not stated) + COc1c(OCCCN2CCOCC2)ccc2c3n(c(=NC(=O)c4cnc(N)nc4)nc12)CCN3, the viability, T/C is 6.24%.

The same assay, now with this note: second compound 1 µM; first compound 1 µM; active compounds read low.
As for `C=CC(=O)N1CCN(c2nc(=O)n(-c3c(C)ccnc3C(C)C)c3nc(-c4c(O)cccc4F)c(F)cc23)C(C)C1` (configuration not stated) + COc1c(OCCCN2CCOCC2)ccc2c3n(c(=NC(=O)c4cnc(N)nc4)nc12)CCN3, the viability, T/C is 6.71%.
On to `CC(Cn1ccc(-c2ccc(C#N)c(Cl)c2)n1)NC(=O)c1cc(C(C)O)[nH]n1` (configuration not stated) + COc1c(OCCCN2CCOCC2)ccc2c3n(c(=NC(=O)c4cnc(N)nc4)nc12)CCN3, for which the viability, T/C is 8.58%.
As to `Cn1nccc1Nc1nccc(-c2ccn(C(CO)c3ccc(Cl)c(F)c3)c(=O)c2)n1` (configuration not stated) + COc1c(OCCCN2CCOCC2)ccc2c3n(c(=NC(=O)c4cnc(N)nc4)nc12)CCN3, the viability, T/C was 5.85%.

Staying with this assay, now noted: second compound 1 µM; first compound 3.16 µM; active compounds read low.
Take `C=CC(=O)N1CCN(c2nc(=O)n(-c3c(C)ccnc3C(C)C)c3nc(-c4c(O)cccc4F)c(F)cc23)C(C)C1` (configuration not stated) + COc1c(OCCCN2CCOCC2)ccc2c3n(c(=NC(=O)c4cnc(N)nc4)nc12)CCN3: the viability, T/C was 15.8%.
`CC(Cn1ccc(-c2ccc(C#N)c(Cl)c2)n1)NC(=O)c1cc(C(C)O)[nH]n1` (configuration not stated) + COc1c(OCCCN2CCOCC2)ccc2c3n(c(=NC(=O)c4cnc(N)nc4)nc12)CCN3: the viability, T/C is 5.75%.
On to `Cn1nccc1Nc1nccc(-c2ccn(C(CO)c3ccc(Cl)c(F)c3)c(=O)c2)n1` (configuration not stated) + COc1c(OCCCN2CCOCC2)ccc2c3n(c(=NC(=O)c4cnc(N)nc4)nc12)CCN3, for which the viability, T/C was 2.1%.

Staying with this assay, now noted: second compound 1 µM; first compound 10 µM; active compounds read low.
As for `C=CC(=O)N1CCN(c2nc(=O)n(-c3c(C)ccnc3C(C)C)c3nc(-c4c(O)cccc4F)c(F)cc23)C(C)C1` (configuration not stated) + COc1c(OCCCN2CCOCC2)ccc2c3n(c(=NC(=O)c4cnc(N)nc4)nc12)CCN3, the viability, T/C is 7.62%.
Still for that read-out and setting: the same measure for `CC(Cn1ccc(-c2ccc(C#N)c(Cl)c2)n1)NC(=O)c1cc(C(C)O)[nH]n1` (configuration not stated) + COc1c(OCCCN2CCOCC2)ccc2c3n(c(=NC(=O)c4cnc(N)nc4)nc12)CCN3: 5.05%.
As for `Cn1nccc1Nc1nccc(-c2ccn(C(CO)c3ccc(Cl)c(F)c3)c(=O)c2)n1` (configuration not stated) + COc1c(OCCCN2CCOCC2)ccc2c3n(c(=NC(=O)c4cnc(N)nc4)nc12)CCN3, the viability, T/C was 1.53%.
